The source made the active and inactive calls. No rule for the calls is given here.
Tested on: rodent carcinogenicity bioassays, tumor incidence
Assay: CCRIS carcinogenicity studies
Settings: Route: ORAL, Dose: 0, Dose: 0
Summary of the method: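 Archive of carcinogenicity, mutagenicity, tumor promotion and tumor inhibition results drawn from journals, NCI reports and other sources, expert-reviewed; covers 1985-2011 and is no longer updated.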

| Compound | carcinogen call (Species: MOUSE, Strain/Sex: B6C3F1/FEMALE, 1250, 2500 PPM IN DIET FOR 103 WK (STUDY DURATION: 105 WK), 1250, 2500 PPM IN DIET FOR 103 WK (STUDY DURATION: 105 WK)) | carcinogen call (Species: MOUSE, Strain/Sex: B6C3F1/MALE, 1250, 2500 PPM IN DIET FOR 103 WK (STUDY DURATION: 105 WK), 1250, 2500 PPM IN DIET FOR 103 WK (STUDY DURATION: 105 WK)) | carcinogen call (Species: RAT, Strain/Sex: F344/FEMALE, 1250, 2500 PPM IN DIET FOR 103 WK (STUDY DURATION: 105 WK), 1250, 2500 PPM IN DIET FOR 103 WK (STUDY DURATION: 105 WK), Tumor Site: Type of Lesion: BLADDER: CARCINOMA) | carcinogen call (Species: RAT, Strain/Sex: F344/MALE, 1250, 2500 PPM IN DIET FOR 103 WK (STUDY DURATION: 105 WK), 1250, 2500 PPM IN DIET FOR 103 WK (STUDY DURATION: 105 WK), Tumor Site: Type of Lesion: URINARY BLADDER: TRANSITIONAL CELL CARCINOMA) | carcinogen call (Species: RAT, Strain/Sex: WISTAR/MALE, 0.03, 0.1, 0.3% IN DIET FOR DURATION OF STUDY (STUDY DURATION: 18 MO), 0.03, 0.1, 0.3% IN DIET FOR DURATION OF STUDY (STUDY DURATION: 18 MO)) |
| --- | --- | --- | --- | --- | --- |
| Nc1ccc(O)c([N+](=O)[O-])c1 | inactive; negative | inactive; negative | equivocal | active; positive |  |
| CCc1cc(Cc2cc(CC)cc(C(C)(C)C)c2O)c(O)c(C(C)(C)C)c1 |  |  |  |  | inactive; negative |
